{"source": "patent US10278958B2", "about": "“IPA as a protective agent” (IXCELA, INC., priority 2012, dated 2019)", "key": {"[1]": {"test_system": "plasma proteins both albumin and imunoglobulins", "type": "in vitro ADME", "text": "(§1) IPA is an indole produced in organisms such as c. Sporogenes that have the enzyme to remove the OH from the 2 position on the propionic acid side chain of indole lactic acid an end product of tryptophan metabolism in mammalian species. It is one of several gut metabolites that affect the plasma metabolome. Other organisms such as brewers yeast also show the ability to produce IPA (Sec below a means of producing purified IPA preparations using brewers yeast or similar organisms). […] We have shown that on free radical attack the intermediate positive ion free radical binds to protein as a kynuric acid moiety. […] We also have identified two metabolites of IPA that allow monitoring of levels in excretion samples such as urine which correlate with plasma and brain levels."}, "whole human plasma": {"test_system": "whole human plasma", "test": "Binding constants for I3PA by serial additions, whole human plasma", "details": "whole human plasma vs ubiquitin", "text": "(§2) In ancillary studies we measured the parent binding constants for I3PA with whole human plasma, HSA, BSA and ubiquitin using serial additions of I3PA to determine the number of molar equivalents of binding sites and mole equivalents of free I3PA. The binding constants (pk) for whole human plasma, HSA and BSA are one the order of 10^3 or greater than for ubiquitin alone. […] Thus, efforts to increase the yield of covalently bound kynuric acid were prevented by over generation of non-covalently bound material. We then decided to attempt this Fenton reaction with I3PA using angiotensin I as the peptide target."}, "BSA": {"biological_target": "BSA (Bos taurus, UniProt P02769)", "sequence (P02769 25-607)": "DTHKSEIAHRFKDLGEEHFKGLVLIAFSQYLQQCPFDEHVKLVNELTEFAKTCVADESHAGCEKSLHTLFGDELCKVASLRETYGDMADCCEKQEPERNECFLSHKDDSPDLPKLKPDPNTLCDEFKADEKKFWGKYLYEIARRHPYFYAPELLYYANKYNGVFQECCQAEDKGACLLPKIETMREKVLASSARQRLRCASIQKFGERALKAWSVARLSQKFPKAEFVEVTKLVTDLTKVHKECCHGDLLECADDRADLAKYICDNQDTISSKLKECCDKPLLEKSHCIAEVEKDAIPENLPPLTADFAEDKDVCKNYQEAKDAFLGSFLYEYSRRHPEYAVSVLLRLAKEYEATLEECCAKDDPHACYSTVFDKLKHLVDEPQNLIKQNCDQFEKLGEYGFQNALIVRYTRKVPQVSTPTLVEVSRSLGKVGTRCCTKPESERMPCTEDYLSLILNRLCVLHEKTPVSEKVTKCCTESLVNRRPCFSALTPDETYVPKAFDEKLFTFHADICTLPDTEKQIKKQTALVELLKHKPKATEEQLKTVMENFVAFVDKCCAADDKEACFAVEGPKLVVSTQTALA", "type": "binding", "text": "as §2"}, "[2]": {"test": "Stability of IPA in plasma at room temperature", "type": "in vitro ADME", "details": "after 7 days at room temperature", "text": "FIG. 26 illustrates the first criterion for selecting compounds for targeted methods is that is a progressive biomarkers—as shown by the trend from C to PMHD to HD in the left hand panel for IPA. A practical criterion is stability. […] Method development then involves integrating simplest preparative and instrument protocols for speed and minimum sample size and interferences. A preparative protocol using a simple 3:1 addition of methanol to plasma centrifuging and injecting supernate was matched to a mobile phase, column and detector settings allowing sensitivity to 2 ng/ml, linearity across the range and analysis with no currently determined interferences. […] The third panel illustrates the application of the method to mouse urine in a dose loading study of IPAM showing two metabolites in dosed animals (green) and the same two metabolites in un dosed mice (blue) and in human urine (red)."}, "[3]": {"test": "Distribution of gut-produced IPA to plasma, brain and CSF", "type": "in vivo, HD mouse models and human", "details": "for crossing of the blood-brain-barrier: gut-produced IPA, brain and CSF", "text": "as §1"}, "[4]": {"test": "Fenton reaction: disappearance of I3PA", "type": "physicochemical", "details": "100 μM H2O2, 10 μM iron sulfate, 100 μM I3PA, 4° C. in the dark, 2 h", "experimental": "The reaction mixture was kept at 4° C. in the dark. Every 30 min, a small aliquot of the reaction mixture was diluted 1:10 and injected onto the offline LC-EC array system."}, "brewers yeast protein": {"test_system": "brewers yeast protein", "test": "Binding of IPA to brewers yeast protein (10K MW filter) and release in HCl", "type": "physicochemical", "details": "supernate through a 10K MW filter", "text": "In yet another aspect of the disclosure we provide a method for preparation of purified indole therapies. Indoles as a class are subject to degradation and contamination such as the problem encountered with preparations of tryptophan that were related to development basal eosinophilia. Nominally pure commercial sources of indoles when evaluated using ultra-sensitive LCECA techniques show traces of other compounds from the […] to (pg/mg) levels (part per billion to sub part per trillion). These are potentially harmful. Pharmaceutical grade and supplemental tryptophan has now been brought to levels high purity that can be verified by LCECA. To take advantage of this we have developed a protocol for creating high concentrations of IPA using brewers yeast which also produces IPA with relatively good efficiency operating on a substrate of glucose and tryptophan. Brewers yeast as such is a common supplement and present as an extract in typical research mouse feed. Production of IPA in this matrix provides a highly purified IPA in a verifiably and long accepted matrix. As an example a preparation of 1 g of brewers yeast, 500 mg of glucose and 50 mg of tryptophan allowed to incubate to completion at room temperature (90-120 min) in 35 ml of distilled water yields ca. 3 mg of IPA. […]"}, "E. coli": {"test_system": "E. coli", "details": "culture studies; cited from earlier work"}, "[5]": {"test_system": "Alzheimer β-amyloid protein", "details": "two examples of oxidative stress; cited from earlier work"}, "[6]": {"test_system": "ischemia-induced neuronal damage", "details": "mice and hamsters; by reducing DNA damage and lipid peroxidation; cited from earlier work"}, "protein aggregation": {"test_system": "protein aggregation", "details": "in vitro; cited from earlier work"}, "[7]": {"test": "Loading study of IPAM in R6/2 HD mice", "type": "in vivo, mouse", "experimental": "A cohort of R6/2 HD mice were dosed daily for 3 weeks intra peritoneal with 200 ug of the IPA derivative amide indole propionamide (IPAM) and compared with undosed R6/2 and their wild type littermates. Feces and urine were collected at the time of sacrifice and blood and brain after sacrifice. The data indicates: • 1. That the brain and plasma levels correlate with urinary levels and thus animals can be tracked in a drug trial without sacrifice. • 2. […] The R6/2 levels of IPA in brain and plasma are lower than in wild type mice. In this study although feces levels were lower the decrease was not significant."}, "ubiquitin": {"biological_target": "T1, ubiquitin (Homo sapiens, UniProt P0CG47)", "T1 construct": "A calculation of a theoretical value for ubiquitin ([M+H]^+ m/z 8560.6287)", "test": "Fenton reaction of I3PA with ubiquitin, high resolution MS", "experimental": "A Fenton reaction was performed using the same concentrations of hydrogen peroxide, iron sulfate and I3PA as discussed above. One microliter of a solution of ubiquitin prepared to a concentration of 10 mg/mi was added to the mixture. In addition, a separate tube containing only the Fenton reaction without ubiquitin was prepared and labeled as the negative control. The reaction was kept in the dark at 4° C. for 16 h.\n(§3) High resolution MS analysis of the reaction mixtures was performed using a 12-T Qh/FT-ICR hybrid mass spectrometer (SolariX, Bruker Daltonics) that was equipped with a nanospray source operated in the positive mode. Samples were diluted 1:10 in 50/50 methanol/water, 0.5% formic acid and analyzed on the SolariX. Detection of ions in the SolariX was obtained at a resolution of approximately 110,000."}, "angiotensin I": {"biological_target": "T2, angiotensin I (Homo sapiens, UniProt P01019)", "T2 construct": "attempt this Fenton reaction with I3PA using angiotensin I as the peptide target; purchased The American Peptide Co", "test": "Fenton reaction of I3PA with angiotensin I, MS/MS", "experimental": "Angiotensin I was obtained from The American Peptide Co in Sunnyvale, Calif., USA. Six tubes were prepared with the following Fenton reaction mixtures: Tubes 1 and 4 contained 100 μM H2O2, 10 μM iron sulfate and 100 μM I3PA; Tubes 2 and 5 contained 100 μM H2O2, 100 μM iron sulfate and 100 μM I3PA. Tubes 3 and 6 contained 100 μM H2O2, 200 μM iron sulfate and 100 μM I3PA. Tubes 4, 5, and 6 also contained 1 μl of angiotensin I prepared to a concentration of 10 mg/ml. A separate tube containing only the Fenton reaction without angiotensin I was prepared and labeled as the negative control. The tubes containing the reaction mixtures were covered with aluminum wrap so that none of the reagents would deteriorate in the ambient light. All reaction mixtures were kept on ice. The tubes were left to react for 30 h.\nas §3, with “1:2” for “1:10”, “acid (for positive-ion mode) or 50/50 methanol/water, 0.05% triethylamine (TEA) (VWR Scientific, PA, USA) (for negative-ion mode)” for “acid”, “and were” for “and”, “SolariX in positive and negative modes.” for “SolariX.”, “110,000. […]” for “110,000.”"}}, "note": "“Also recorded” adds a separate entry of the source."}
{"compound": "O=C(O)CCc1c[nH]c2ccccc12", "note": "[IPA, indole-3-propionic acid]", "values": [{"measurement": "binding to plasma proteins", "setting": "[1]", "value": "strongly bound to plasma proteins"}, {"measurement": "free levels", "setting": "[1]", "value": "ca. 0.1 ng/ml"}, {"measurement": "loading capacity of plasma for IPA", "setting": "[1]", "value": "approximately 10 ug/ml"}, {"measurement": "normal plasma levels", "setting": "[1]", "value": "ca. 200 ug/ml"}, {"measurement": "binding constants (pk) relative to ubiquitin alone", "setting": "whole human plasma", "value": "~10^3"}, {"measurement": "binding constants (pk) relative to ubiquitin alone", "setting": "BSA", "value": "~10^3"}, {"measurement": "degradation in plasma", "setting": "[2]", "value": 5, "unit": "%"}, {"measurement": "absorption", "setting": "[3]; animal model and human studies", "value": "best adsorbed through the gut"}, {"measurement": "crossing of the blood-brain-barrier", "setting": "[3]", "value": "crosses the BBB and is found in brain and CSF"}, {"measurement": "crossing of the blood-brain-barrier", "setting": "[3]; listed as I3PA", "value": "did cross the blood-brain-barrier; also recorded: crosses the blood-brain-barrier"}, {"measurement": "transfer from gut to plasma", "setting": "[3]; residual fecal levels vs plasma levels", "value": "majority of IPA produced is transferred to plasma"}, {"measurement": "oxidative stability in Fenton reaction", "setting": "[4]", "value": "disappearance of I3PA"}, {"measurement": "IPA coordinately bound to brewers yeast protein", "setting": "brewers yeast protein", "value": "75-80%"}, {"measurement": "effect on other microbial species", "setting": "E. coli", "value": "suppress other microbial species such as E. coli"}, {"measurement": "neuroprotection", "setting": "[5]", "value": "strong levels of neuroprotection"}, {"measurement": "protection of neurons", "setting": "[6]", "value": "protects neurons from ischemia-induced neuronal damage"}, {"measurement": "effect on protein aggregation", "setting": "protein aggregation", "value": "suppress protein aggregation"}]}
{"compound": "indole propionamide [IPAM]", "values": [{"measurement": "conversion of IPAM to IPA", "setting": "[7]; intra peritoneal 200 ug daily for 3 weeks, R6/2 mice, blood/plasma vs gut", "value": "converted rapidly in the blood to IPA but less rapidly in the gut; also recorded: rapidly converted to IPA in the plasma; also recorded: converted rapidly to I3PA in plasma and less rapidly in the gut"}, {"measurement": "urinary metabolites", "setting": "[7]; mouse urine of dosed animals", "value": "probable glucuronide type Phase II metabolite compounds"}]}
{"compound": "kynuric acid", "values": [{"measurement": "binding of I3PA oxidation product to ubiquitin", "setting": "ubiquitin", "value": "bound both covalently and co-coordinately"}, {"measurement": "covalent binding site on angiotensin I", "setting": "angiotensin I", "value": "Tyr4"}]}
